Reference: patent EP0111455A2, “Unsaturated lactones” (CIBA-GEIGY AG, priority 1982, dated 1984)
pEC50, pIC50: −log10 of the molar value.

Assays:
[1] = tested on: isolierten, elektrisch gereizten, linken Vorhöfen des Meerschweinchens; test: positive inotropic effect on isolated, electrically stimulated left atria (method after J.V. Levy); format: cell-based, Meerschweinchen; settings: for IC25 / pIC50: negative inotropic effect, same set-up; for IC25: read-out: Konzentration für Reduktion der Kontraktionskraft um 25 %; for pIC50: read-out: Konzentration für Reduktion der Kontraktionskraft um 50 %; for Kontraktionskraft (Art der Wirkung): qualitative, exclusively a decrease of contraction force; for Emax: Cavia porcellus, extent of positive inotropic effect in % of the maximal increase of contraction force by Isoproterenol, read-out: Ausmass der Wirkung (% von ISOmax); for pEC50: concentration for half of the maximal positive inotropic effect, left atria, guinea pig, read-out: Wirksamkeit EC50
Description: (§1) Die Steigerung der myocardialen Kontraktilität, d.h. die positiv inotrope Wirkung, kann z.B. anhand von Versuchsanordnungen nachgewiesen werden, die sich auf die von J.V. Levy, Isolated Atrial Preparations in Methods in Pharmacology, Bd. 1, S. 77 bis 104 (Ed. A. Schwartz; Appleton-Century-Crofts, New York; 1971),beschriebene Methodik, stützen. So steigern die Verbindungen der Formel I und Salze von solchen Verbindungen mit salzbildenden Eigenschaften in Konzentrationen ab etwa 0,1 umol/L an isolierten, elektrisch gereizten, linken Vorhöfen des Meerschweinchens (in vitro-Versuchsanordnung) die maximale Kontraktionskraft (peak developed tension). Das Ausmass (efficacy) dieser positiv inotropen Wirkung ist dabei unterschiedlich, kann jedoch bis zu 90 % der mit Isoproterenol maximal erreichbaren Wirkung betragen. Ferner steigern sie in Konzentrationen ab etwa 0,3 µ mol/L an isolierten, spontan schlagenden, rechten Vorhöfen des Meerschweinchens die Kontraktionsfrequenz. Das Ausmass (efficacy) dieser positiv chronotropen Wirkung ist dabei unterschiedlich, kann jedoch bis zu 60% der mit Isoproterenol maximal erreichbaren Wirkung betragen.
In der folgenden Tabelle werden die Konzentrationen (in µmol/L) für Verbindungen der Formel I angegeben, die notwendig sind, um die Hälfte der maximalen positiv inotropen Wirkung zu erzielen (EC50). Das Ausmass der Wirkung wird in % der maximalen, mittels Isoproterenol in dieser Versuchsanordnung bewirkten Steigerung der Kontraktionskraft (ISOmax.) angegeben; diejenige von Isoproterenol beträgt +2.1 +0.1 g (x ± SK; N=30).
Im Gegensatz dazu weist z.B. der obgenannte 2-Cyan-6-methyl-4-(3-nitrophenyl)-1,4-dihydro-pyridin-3,5-dicarbonsäure-5-isopropylester-3-methylester in der gleichen Versuchsanordnung eine Reduktion der Kontraktionskraft um 25 % bei einer Konzentration von 1 µmol/L und um 50 % bei einer solchen von 8 µmol/L auf, während Nifedipin bei einer Konzentration von 0.1 µmol/L eine 25 %ige und von 0.4 µmo 1/1 eine 50 Zige Reduktion der myocardialen Kontraktionskraft bewirkt.

[2] = tested on: isolierten, spontan schlagenden, rechten Vorhöfen des Meerschweinchens; test: positive chronotropic effect on isolated, spontaneously beating right atria; format: cell-based, Meerschweinchen; settings: qualitative; exclusively a decrease of contraction frequency
Description: as §1

narkotisierten Katze = test: arterial blood pressure in the anaesthetised cat, intravenous; format: in vivo; settings: qualitative, i.v., doses from about 0,001 mg/kg
Experimental: An der narkotisierten Katze führen die Verbindungen der Formel I und Salze von solchen Verbindungen mit salzbildenden Eigenschaften bei intravenöser Verabreichung in Dosen ab etwa 0,001 mg/kg zu einer Steigerung des arteriellen Blutdrucks.

männliche Ratten = test: central nervous system stimulation (behaviour) in male rats, i.p.; format: in vivo; settings: 50 mg/kg i.p. as solution in Polyäthylenglycol 400; during 1 hour, especially 30 minutes after administration
Experimental: Die Verbindungen der Formel I sowie Salze von solchen Verbindungen mit salzbildenden Eigenschaften wirken ferner aktivierend, insbesondere stimulierend, auf das Zentralnervensystem. So bewirkt z.B. die i.p.-Verabreichung von 50 mg/kg 4-(2-Difluormethoxyphenyl)-2-methyl-5-oxo-1,4,5,7-tetrahydro-fuo[3,4-b]pyridin-3-carbonsäureäthylester als Lösung in Polyäthylenglycol 400 an männliche Ratten während 1 Stunde, insbesondere während 30 Minuten nach Verabreichung Schnuppern, Kau- und Putzaktivität, sporadische. Schüttelbewegungen von Kopf und Körper sowie Vorderpfoten-Klonus. Aufgrund dieser Eigenschaften erscheinen die Verbindungen der Formel I sowie Salze von solchen Verbindungen mit salzbildenden Eigenschaften für die Behandlung retardierter Depressionen verschiedenen Schweregrades, von psychischen, von fehlendem Antrieb und Initiative begleiteten Störungen sowie von hypokinetischen, geriatrischen Patienten geeignet.

narkotisierten Hund = test: haemodynamics and blood glucose in the anaesthetised dog, intravenous; format: in vivo; settings: qualitative
Experimental: Im narkotisierten Hund (in vivo-Versuchsanordnung) bewirken die Verbindungen der Formel I und Salze von solchen Verbindungen mit salzbildenen Eigenschaften bei intravenöser Verabreichung in Dosen ab etwa 1 mg/kg ebenfalls eine Steigerung der myokardialen Kontraktilität (Zunahme der maximalen Druckanstiegsgeschwindigkeit dP/dt in der max Aorta) um etwa 40 bis etwa 60 %, sowie eine Steigerung des arteriellen Blutdrucks um etwa 10 bis etwa 30 %, ferner eine Abnahme der GlucoseKonzentration im Blut um etwa 10 bis etwa 30 %.

SMILES	Emax [1]	pEC50 [1]	further results
COC(=O)C1=C(C#N)NC(C)=C(C(=O)OC(C)C)C1c1cccc([N+](=O)[O-])c1 (centres unmarked) [2-Cyan-6-methyl-4-(3-nitrophenyl)-1,4-dihydro-pyridin-3,5-dicarbonsäure-5-isopropylester-3-methylester, reference compound]	–	–	IC25 [1]: 1 µM; pIC50 [1]: 5.10; Kontraktionskraft (Art der Wirkung) [1]: negativ inotrope Wirkung; Kontraktionsfrequenz (Art der Wirkung) [2]: negativ chronotrope Wirkung; arterieller Blutdruck (Art der Wirkung) (narkotisierten Katze): Senkung des arteriellen Blutdrucks
CCOC(=O)C1=C(C)NC2=C(C(=O)OC2)C1c1ccccc1OCCSC (centres unmarked) [2-Methyl-4-[2-(2-methylthioäthoxy)-phenyl]-5-oxo-_ 1,4,5,7-tetrahydro-fnro[3,4-b]pyridin-3-carbonsäure-äthylester]	75%	6.42	–
CCOC(=O)C1=C(C)NC2=C(C(=O)OC2)C1c1ccccc1OC(F)(F)C(F)Cl (centres unmarked) [4-[2-(2-Chlor-1,1,2-trifluor-äthoxy)-phenyl]-2-methyl-5-oxo-1,4,5,7-tetrahydro-furo-[3,4-b]pyridin-3-carbonsäureäthylester]	75%	6.00	–
CC1=C(C#N)C(c2ccccc2OC(F)F)C2=C(COC2=O)N1 (centres unmarked) [-CN; 2-Difluormethoxy-phenyl, 4-(2-Difluormethoxy-phenyl)-2-methyl-5-oxo-1,4,5,7-tetrahydro-furo[3,4-b]pyridin-3-carbonitril]	68%	4.20	–
COCCOC(=O)C1=C(C)NC2=C(C(=O)OC2)C1c1ccccc1OC(F)F (centres unmarked) [-COOC2H4OCH3; 2-Difluormethoxy-phenyl, 4-(2-Difluormethoxyphenyl)-2-methyl-5-oxo-1,4,5,7-tetrahydro-furo[3,4-b]pyridin-3-carbonsäure-(2-methoxyäthyl)-ester]	90%	5.28	–
CCOC(=O)C1=C(C)NC2=C(C(=O)OC2)C1c1cccc(OC(F)F)c1OC(F)F (centres unmarked) [-COOC2H5; 2,3-Di-difluor-methoxyphenyl, 4-[2,3 Di-(difluormethoxy)-phenyl]-2-methyl-5-oxo-1,4,5,7-tetrahydro-furo[3,4-b]pyridin-3-carbonsäure-äthylester]	14%	–	–
CCOC(=O)C1=C(C)NC2=C(C(=O)OC2)C1c1ccccc1OCCOC (centres unmarked) [-COOC2H5; 2-(2-Methoxyäthoxy)-phenyl, 2 Methyl-4-[2-(2-methoxyäthoxy)-phenyl]-5-oxo-1,4,5,7-tetrahydro-furo[3,4-b]pyridin-3-carbonsäure-äthylester]	80%	5.42	–
CCOC(=O)C1=C(C)NC2=C(C(=O)OC2)C1c1ccccc1OC(F)F (centres unmarked) [-COOC2H5; 2-Difluormethoxy-phenyl, 4-(2-Difluormethoxy-phenyl)-2-methyl-5-oxo-1,4-5,7-tetrahydro-furo[3,4-b]pyridin-3-carbonsäureäthylester]	65%	6.15	Wirkung auf das Zentralnervensystem (Verhalten) (männliche Ratten): Schnuppern, Kau- und Putzaktivität, sporadische. Schüttelbewegungen von Kopf und Körper sowie Vorderpfoten-Klonus
CCOC(=O)C1=C(C)NC2=C(C(=O)OC2)C1c1ccccc1SC(F)F (centres unmarked) [-COOC2H5; 2-Difluormethyl-mercaptophenyl, 4-(2-Difluormethylmercaptophenyl)-2-methyl-5-oxo-1,4,5,7-tetrahydro-furo[3,4-b]pyridin-3-carbonsäure-äthylester]	80%	6.00	–
CCOC(=O)C1=C(C)NC2=C(C(=O)OC2)C1c1cccc(OC(F)F)c1 (centres unmarked) [-COOC2H5; 3-Difluormethoxy-phenyl, 4-(3-Difluormethoxyphenyl)-2-methyl-5-oxo-1,4,5,7-tetrahydro-furo [3,4-b]pyridin-3-carbonsäure-äthylester]	65%	5.32	–
CCOC(=O)C1=C(C)NC2=C(C(=O)OC2)C1c1ccc(OC(F)F)cc1 (centres unmarked) [-COOC2H5; 4-Difluormethoxy-phenyl, 4-(4-Difluormethoxy-phenyl)-2-methyl-5-oxo-1,4,5,7-tetrahydro-furo[3,4-b]pyridin-3-carbonsäureäthylester]	10%	–	–
COC(=O)C1=C(C)NC2=C(C(=O)OC2)C1c1ccccc1OC(F)F (centres unmarked) [-COOCH3; 2-Difluormethoxy-phenyl, 4-(2-Difluormethoxyphenyl)-2-methyl-5-oxo-l,4,5,7-tetrahydro-furo[3,4-b]pyridin-3-carbonsäure-methylester]	70%	5.43	–
CC1=C(C(=O)OC(C)C)C(c2ccccc2OC(F)F)C2=C(COC2=O)N1 (centres unmarked) [-COOCH(CH3)2; 2-Difluormethoxy-phenyl, 4-(2-Difluormethoxyphenyl)-2-methyl-5-oxo-1,4,5,7-tetra-hydro-furo[3,4-b]pyridin-3-carbonsäure-isopropylester]	70%	5.92	–
CC(C)NCC(O)c1ccc(O)c(O)c1 (centres unmarked) [Isoproterenol, reference compound]	–	–	maximale Steigerung der Kontraktionskraft (ISOmax.) ([1]; x ± SK, N=30): 2.1 ± 0.1 g
COC(=O)C1=C(C)NC(C)=C(C(=O)OC)C1c1ccccc1[N+](=O)[O-] [Nifedipin, 2,6-Dimethyl-4-(2-nitrophenyl)-1,4-dihydro-pyridin-3,5-dicarbonsäure-dimethylester, reference compound]	–	–	IC25 [1]: 0.1 µM; pIC50 [1]: 6.40; Kontraktionskraft (Art der Wirkung) [1]: negativ inotrope Wirkung; Kontraktionsfrequenz (Art der Wirkung) [2]: negativ chronotrope Wirkung; Blutdruck (Art der Wirkung) (narkotisierten Hund): Senkung des Blutdrucks; arterieller Blutdruck (Art der Wirkung) (narkotisierten Katze): Senkung des arteriellen Blutdrucks
